Common to all, as to assay type: in vivo
Series [1] relates to Roundup Ready cotton seeds. The experiment in a line: Cold-induced inhibition of cotton seed germination. As to conditions: for number of cotton seeds germinated / Fresh Wt.: 300 ppm each component; for Fresh Wt.: seedlings harvested 17 days after planting.
The test system of the next series is cabbage plants. Description: Heat stress in cabbage, fresh weight. As to conditions: CaNO3 2500 ppm alone.
The subject of another series is Duckweed. The experiment in a line: Copper salt stress in duckweed, dry weight. To be noted: fifteen days of growth.

The structures appear in SMILES notation.

For the compound `O=[N+]([O-])[O-].O=[N+]([O-])[O-].[Ca+2]` [CaNO3, calcium nitrate], the “number of cotton seeds germinated” value came to 0 in series [1] (5 days after planting, 59° F. (15° C.)/50° F. (10° C.), 45 seeds); 9 in series [1] (5 days after planting, 75° F. (24° C.), 45 seeds per treatment); 0 in series [1] (7 days after planting, 59° F. (15° C.)/50° F. (10° C.), 45 seeds); 38 in series [1] (7 days after planting, 75° F. (24° C.), 45 seeds); 6 in series [1] (9 days after planting, 59° F. (15° C.)/50° F. (10° C.), 45 seeds); 41 in series [1] (9 days after planting, 75° F. (24° C.), 45 seeds). Also, the “number of cotton seeds germinated” value in series [1] (13 days after planting, 59° F. (15° C.)/50° F. (10° C.), 45 seeds) amounted to 23; in series [1] (13 days after planting, 75° F. (24° C.), 45 seeds), 42; in series [1] (17 days after planting, 59° F. (15° C.)/50° F. (10° C.), 45 seeds) it was 31; in series [1] (17 days after planting, 75° F. (24° C.), 45 seeds) it was 43. Further, the “seeds germinated, % of all seeds” value in series [1] (9 days after planting, low temperatures, 45 seeds per treatment) was determined as 13%. Besides, the results for the “Fresh Wt.” value in series [1] (59° F. (15° C.)/50° F. (10° C.)) and in series [1] (75° F. (24° C.)) were 4.01 g and 8.70 g, respectively. The “Mean Fresh Weight (g) ± SD” value in the series on cabbage plants (oven at 48° C. (118° F.) for twelve hours, weighed one week later) stood at 28.8 ± 5.6 g. In the series with cabbage plants (oven at 48° C. for twelve hours), the “% of Room Temperature Control” value amounted to 77%.

`O.O.O.O.O.O=S(=O)([O-])[O-].[Cu+2]` [Copper, CuSo4SH2O]: the “Average Dry Weight (mg) ± SD” value in the series on Duckweed (Copper 1.7 ppm) is listed as 18.0 ± 4.7 mg. In the series on Duckweed (Copper 3.3 ppm), the “% Change From Control” value is reported as −70% and the “Average Dry Weight (mg) ± SD” value was 8.3 ± 0.7 mg.
